Laboratory results taken from patent US20210213041A1, “REPEAT RNA AS BIOMARKERS OF TUMOR IMMUNE RESPONSE” (The General Hospital Corporation, priority 2018, published 2021).

Tested on: melanoma
Experiment: Immunotherapy response of melanoma patients by standard clinical imaging criteria (CT scan change), tumors classed by HSATII RNA-ISH
Type: in vivo, human
Method: All combined RNA-ISH and IHC assays are performed as follows: Monoclonal antibodies for immune cells (T-cell subsets CD3, CD4, CD8, FOXP3; Macrophages CD68, CD163; B-cells CD20; NK cells CD16, CD56) and RNA ISH probes for repeat RNAs (HSATII, HERV-K, HERV-H, LINE1) were sequentially applied on a single histologic slide, and contrasting chromogens were used to visualize the antibody: brown (diaminobenzidine [DAB]) for immune marker and RNA: red (fast red) for repeat RNA. Paraffin-embedded sections were mounted on coated slides and were placed in an oven for 60 minutes at 60° C. The sequential double-staining protocol was performed using the Leica Bond Rx automated immunostainer. […]
As shown herein, HSATII low melanomas respond to immunotherapy including anti-PD1/PDL1 and anti-CTLA4 therapies (FIG. 5). Briefly, a cohort of 20 melanoma patients who received either anti-PD1/PDL1 or anti-CTLA4 therapy that had formalin fixed paraffin embedded (FFPE) tissue were evaluated with HSATII RNA-ISH combined with CD3 T cell IHC assay. Tumors were evaluated for HSATII RNA levels (HIGH vs LOW) and CD3 T cell infiltrates quantitated by manual counting of cells in a 400×200 micron area by a pathologist. […] Tumors were evaluated for HSATII RNA levels (HIGH vs LOW) and CD163 macrophage infiltrates quantitated by manual counting of cells in a 400×200 micron area by a pathologist.

Substance	immunotherapy response as determined by standard clinical imaging criteria (CT scan change) (HSATII LOW tumors (high CD3 T-cells))	immunotherapy response as determined by standard clinical imaging criteria (CT scan change) (HSATII HIGH tumors (low CD3 T-cells))
ipilimumab	responder	
nivolumab		non-responder
